Experimental data: paper PMC10999543, “Identification of kinase modulators as host-directed therapeutics against intracellular methicillin-resistant Staphylococcus aureus” (Frontiers in Cellular and Infection Microbiology, 2024)
Read-outs that look alike come from different tables or passages of the source.

Experiments:
[1] = tested on: intracellular MRSA; format: cell-based, Staphylococcus aureus; conditions: for z-scoreMRSA+ mean: mean of 3 replicates; for z-scoreMRSA+ rep 1 / %GFP+ rep 1: replicate 1; for z-scoreMRSA+ rep 2 / %GFP+ rep 2: replicate 2; for z-scoreMRSA+ rep 3 / %GFP+ rep 3: replicate 3
Outline: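 HeLa cells infected with GFP-MRSA (MOI ~6.8), gentamicin-cleared, then incubated overnight at 37°C with inhibitors plus 5 µg/ml gentamicin; DMSO as negative control, triplicates. Flow cytometry gave % GFP-positive cells and cell count (viability surrogate); hits by plate z-score (MRSA ≤ -2, HeLa count ≥ -3).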

[2] = tested on: HER2; parameters: method as in Elkins et al., 2016; conditions: PKIS1, Caliper assay, ref Elkins et al., 2016; cited from earlier work
[3] = tested on: HER4; parameters: method as in Elkins et al., 2016; conditions: PKIS1, Caliper assay, ref Elkins et al., 2016; cited from earlier work
[4] = tested on: HeLa cells; assay: Compound screen by flow cytometry: HeLa cell count as surrogate readout of cell viability (z-scoreHeLa); format: cell-based, human; conditions: for z-scoreHeLa mean: mean of 3 replicates; for z-scoreHeLa rep 1 / cell count rep 1: replicate 1; for z-scoreHeLa rep 2 / cell count rep 2: replicate 2; for z-scoreHeLa rep 3 / cell count rep 3: replicate 3
Outline: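 HeLa cells were infected with GFP-MRSA (mean MOI 6.8 ± 4.6) for 1 h, and extracellular bacteria were killed with 30 µg/ml gentamicin. Cells were then incubated overnight with kinase inhibitors in 5 µg/ml gentamicin, in triplicate against DMSO controls. Flow-cytometric cell count served as a viability surrogate, expressed as a plate z-score.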

[5] = PKIS compound screen, Yes/No call
[6] = PKIS compound screen, Yes/No call (effect without cell death)
[7] = PKIS compounds raw data, MRSA-infected HeLa cells
[8] = PKIS compounds raw data, HeLa cell count
[9] = PKIS compound screen raw data, MRSA-infected HeLa cells
[10] = PKIS compound screen, MRSA-infected HeLa cells
[11] = PKIS compound screen raw data, HeLa cell count
[12] = PKIS compound screen, HeLa cell count
[13] = Yes/No: effect without cell death
[14] = compound screen, MRSA-infected HeLa cells
[15] = compound screen, HeLa cell count

SMILES	effect [1, 5]	hit [1, 6]	z-scoreMRSA+ mean ([1]; PKIS compound screen)	z-scoreMRSA+ rep 1 ([1]; PKIS compound screen)	z-scoreMRSA+ rep 2 ([1]; PKIS compound screen)	z-scoreMRSA+ rep 3 ([1]; PKIS compound screen)	%GFP+ rep 1 [1, 7] [%]	%GFP+ rep 2 [1, 7] [%]	%GFP+ rep 3 [1, 7] [%]	cell death [4, 5]	z-scoreHeLa mean ([4]; PKIS compound screen)	z-scoreHeLa rep 1 ([4]; PKIS compound screen)	z-scoreHeLa rep 2 ([4]; PKIS compound screen)	z-scoreHeLa rep 3 ([4]; PKIS compound screen)	cell count rep 1 [4, 8]	cell count rep 2 [4, 8]	cell count rep 3 [4, 8]	%GFP+ rep 1 [1, 9] [%]	%GFP+ rep 2 [1, 9] [%]	%GFP+ rep 3 [1, 9] [%]	also measured
[O-][S+]1CCN(Cc2ccc(-c3ccc4ncnc(Nc5ccc(OCc6ccccc6)c(Cl)c5)c4c3)o2)CC1 [GW583373A]	No	No	-1.31	-1.43	-1.26	-1.26	19.7	19.5	20.5	No	1.46	1.65	1.30	1.44	8794	7971	7863				% inhibition at 1 µM HER2 [2]: 73%; % inhibition at 1 µM HER4 [3]: 84%
O=C(Nc1n[nH]c2nc(-c3ccccc3)c(Br)cc12)C1CC1 [SB-708998]	No	No	0.31	0.75	-0.18	0.38	30.9	25.1	29.3	No	0.29	-0.0543	0.46	0.46	5956	6708	6327	14.4	13.9	15.7	z-scoreMRSA+ mean [1, 10]: -1.40; z-scoreMRSA+ rep 1 [1, 10]: -1.17; z-scoreMRSA+ rep 2 [1, 10]: -1.50; z-scoreMRSA+ rep 3 [1, 10]: -1.51; effect ([1]; PKIS compound screen, Yes/No call on z-scoreMRSA+): No; cell count rep 1 [4, 11]: 29154; cell count rep 2 [4, 11]: 28936; cell count rep 3 [4, 11]: 20350; z-scoreHeLa mean [4, 12]: 0.24; z-scoreHeLa rep 1 [4, 12]: -0.18; z-scoreHeLa rep 2 [4, 12]: 0.63; z-scoreHeLa rep 3 [4, 12]: 0.28; cell death ([4]; PKIS compound screen, Yes/No call on z-scoreHeLa): No
O=C(Nc1n[nH]c2cc(-c3cccs3)ccc12)C1CC1 [SB-731284]																		22.6	23.6	20.0	effect ([1]; Yes/No call from z-scoreMRSA+): No; hit [1, 13]: No; z-scoreMRSA+ mean [1, 14]: -0.35; z-scoreMRSA+ rep 1 [1, 14]: -0.62; z-scoreMRSA+ rep 2 [1, 14]: 0.24; z-scoreMRSA+ rep 3 [1, 14]: -0.66; cell count rep 1 [4, 11]: 2848; cell count rep 2 [4, 11]: 2463; cell count rep 3 [4, 11]: 2761; cell death ([4]; Yes/No call from z-scoreHeLa): No; z-scoreHeLa mean [4, 15]: -1.36; z-scoreHeLa rep 1 [4, 15]: -1.08; z-scoreHeLa rep 2 [4, 15]: -1.41; z-scoreHeLa rep 3 [4, 15]: -1.57
O=C(Nc1n[nH]c2cc(-c3ccsc3)ccc12)C1CC1 [SB-732932]							25.2	22.2	22.6						6278	6296	8200				effect ([1]; Yes/No call from z-scoreMRSA+): No; hit [1, 13]: No; z-scoreMRSA+ mean [1, 14]: 0.001; z-scoreMRSA+ rep 1 [1, 14]: -0.0173; z-scoreMRSA+ rep 2 [1, 14]: -0.10; z-scoreMRSA+ rep 3 [1, 14]: 0.12; cell death ([4]; Yes/No call from z-scoreHeLa): No; z-scoreHeLa mean [4, 15]: 1.60; z-scoreHeLa rep 1 [4, 15]: 1.39; z-scoreHeLa rep 2 [4, 15]: 1.54; z-scoreHeLa rep 3 [4, 15]: 1.87
O=C(Nc1n[nH]c2cc(-c3ccccc3)ccc12)C1CC1 [SB-732941]	No	No	-0.19	-0.15	0.30	-0.74	12.7	14.4	13.4	No	0.28	0.15	0.37	0.31	4945	4760	7601				
